In patent publication US9173893B2, “Purine nucleoside monophosphate prodrugs for treatment of cancer and viral infections” (Cocrystal Pharma, Inc., priority 2009, dated 2015):
Entries after “also recorded” stand apart in the source; their conditions may differ. Read-outs that look alike come from different tables or passages of the source. Each block holds one molecule with its values, some of them ahead of it.

What was measured:
adenosine deaminase = assay: Adenosine deaminase assay (deamination of nucleosides); type: in vitro ADME
Procedure: To determine the propensity for deamination of the 6-substituted-2-amino purine nucleoside monophosphate prodrugs by adenosine deaminase, nucleoside compounds were incubated with the commercially available purified enzyme, and the reaction was followed spectrophotometrically. Reaction conditions were 50 mM potassium phosphate, pH 7.4, with 50 μM nucleoside analog in 0.5 mL at 25° C. Reaction time was 7 minutes with 0.002 units of enzyme and 120 minutes with 0.2 units of enzyme. (The unit definition of adenosine deaminase is one unit will deaminate 1.0 μmol of adenosine to inosine per minute at pH 7.5 at 25° C.) Deoxyadenosine was the positive control which was 59% deaminated under the given conditions in 7 minutes with 0.002 units of enzyme. Deoxyguanosine was the negative control. Optical density was measured at 265 nm or 285 nm. The difference in optical density between the beginning and the end of the experiment was divided by the extinction coefficient then multiplied by the volume of the reaction to determine the number of mols of substrate transformed into product. Mols of product were divided by mols of substrate equivalent to a 100% complete reaction then multiplied by 100 to obtain percent deamination. The limit of detection was 0.001 optical density units.

HIV-1LAI = assay: Anti-HIV (in PBM cells) assay; type: cell-based; conditions: Human immunodeficiency virus 1, PBMC; for EC50: read-out: HIV EC50; for EC90: read-out: HIV EC90
Procedure: Stock solutions (20-40 mM) of the compounds were prepared in sterile DMSO and then diluted to the desired concentration in growth medium. Cells were infected with the prototype HIV-1LAI at a multiplicity of infection of 0.01. Virus obtained from the cell supernatant was quantified on day 6 after infection by a reverse transcriptase assay using (rA)n·(dT)12-18 as template-primer. The DMSO present in the diluted solution (<0.1%) had no effect on the virus yield. AZT was included as positive control.

human PBM cells = assay: Cytotoxicity assay in PBM cells
[1] = system: PHA-stimulated human PBMCs; conditions: cited from earlier work
CEM cells = conditions: previous study; cited from earlier work
Vero cells = assay: Cytotoxicity assay in Vero cells; conditions: Chlorocebus sabaeus, read-out: Vero IC50
[2] = system: CEM (human lymphoblastoid) cells; assay: Cytotoxicity assay in CEM cells; conditions: Lymphoblastoid cell, read-out: CEM IC50
HepG2 cells = HepG2 cells incubated with 10 μM; cited from earlier work
[3] = system: human peripheral blood mononuclear (PBM) cells; assay: LC/MS analysis of nucleotides formed after incubation in PBM cells; type: in vitro ADME; conditions: for nucleosides/nucleotides detected by LC/MS / species not detected by LC/MS: 50 μM
MT-2 cells = assay: Analysis of intracellular nucleotides formed in MT-2 cells; type: in vitro ADME
[4] = human PBM cells, RS-788 n = 3, RS-864 n = 2
[5] = 50 μM nucleoside analog, 50 mM potassium phosphate pH 7.4, 25° C.

Compound: Nc1nc(N)c2ncn([C@H]3CO[C@@H](CO)O3)c2n1 [DAPD, (−)-β-D-2,6-diaminopurine dioxolane, reference compound]
EC50 (HIV-1LAI; [4]): 1 µM
EC90 (HIV-1LAI; [4]): 6.5 µM
IC50 (human PBM cells; Homo sapiens, PBMC, read-out: PBM IC50): > 100 µM
DAPD levels in PBMCs relative to CEM cells ([1]; Antimicrob. Agents Chemother. 2001, 45, 158-165): 27 fold
intracellular metabolism ([1]; PHA-stimulated human PBMCs, previous study): readily deaminate to (−)-D-dioxolane guanine (DXG); also recorded: No phosphorylation of DAPD to the corresponding mono-, di-, or triphosphate forms was detected
intracellular metabolism (CEM cells): readily deaminate to (−)-D-dioxolane guanine (DXG); also recorded: No phosphorylation of DAPD to the corresponding mono-, di-, or triphosphate forms was detected
IC50 (Vero cells): > 100 µM
IC50 [2]: > 100 µM

Compound: O=c1[nH]c(=O)n([C@@H]2O[C@H](CO)[C@@H](O)[C@@H]2F)cc1I [fialuridine, 1,2′-deoxy-2′-fluoro-1-D-arabinofuranosly-5-iodo-uracil]
mitochondrial morphology in electron micrographs (HepG2 cells): enlarged mitochondria with morphological changes consistent with mitochondrial dysfunction

Compound: [N-]=[N+]=NC1C[C@H](n2cnc3c(NC4CC4)nc(N)nc32)O[C@@H]1CO (stereo partly shown) [Compound 72]
nucleosides/nucleotides detected by LC/MS ([3]; human, 4 h): RFS-457-DP and RFS-457-TP
species not detected by LC/MS ([3]; human, 4 h): No RFS-512, RFS-512-MP, RFS-512-DP, or RFS-512-TP were detected

Compound: CCOC(=O)[C@H](C)NP(=O)(OC[C@@H]1OC[C@H](n2cnc3c(N)nc(N)nc32)O1)Oc1ccccc1 (stereo partly shown) [RS-864]
nucleosides/nucleotides detected by LC/MS ([3]; PBM cells, 4 hr incubation): low levels of DXG, DXG-MP, and DXG-TP; also recorded: very high levels of DAPD-TP; also recorded: low levels of DAPD, DAPD-MP, DAPD-DP
EC50 (HIV-1LAI): 0.24 µM
EC90 (HIV-1LAI): 1.3 µM
PBM IC50 printed as percent at a single concentration (human PBM cells; @ 100 μM): 66.5% @ 100 μM
IC50 (Vero cells): > 100 µM
IC50 [2]: > 100 µM

Compound: [N-]=[N+]=N[C@H]1C[C@H](n2cnc3c(=O)[nH]c(N)nc32)O[C@@H]1CO [AZG]
concentration at which phosphorylation reaches steady state (MT-2 cells; MT-2, four different concentrations): 30 µM

Further lines, with some results ahead:

Conversion to the G analog by / stability to adenosine deaminase (adenosine deaminase; under the conditions tested): stable to adenosine deaminase
Compound: CN(C)c1nc(N)nc2c1ncn2[C@H]1CC(N=[N+]=[N-])[C@@H](CO)O1 (stereo partly shown) [Compound 69]

nucleosides/nucleotides detected by LC/MS ([3]; human, 4 h): RFS-506-DP, RFS-457-DP, and RFS-457-TP
Compound: COc1nc(N)nc2c1ncn2[C@H]1CC(N=[N+]=[N-])[C@@H](CO)O1 (stereo partly shown) [Compound 70]
species not detected by LC/MS ([3]; human, 4 h): No RFS-506, RFS-506-MP, or RFS-506-TP were detected

nucleosides/nucleotides detected by LC/MS ([3]; human, 4 h): RFS-457-DP and RFS-457-TP
Compound: C=CCNc1nc(N)nc2c1ncn2[C@H]1CC(N=[N+]=[N-])[C@@H](CO)O1 (stereo partly shown) [Compound 62]
species not detected by LC/MS ([3]; human, 4 h): No RFS-427, RFS-427-MP, RFS-427-DP, or RFS-427-TP were detected

AZG-TP levels compared with AZG treatment ([3]; PBM cells, 4 hr at 50 μM): higher
nucleosides/nucleotides detected by LC/MS ([3]; human, 4 h): RFS-457-TP
Deamination in 7 min (0.002 units Adenosine Deaminase) (adenosine deaminase; [5]): 12.81 ± 1.57%
Deamination in 120 min (0.2 units Adenosine Deaminase) (adenosine deaminase; [5]): 240.53 ± 5.86%
level of unchanged drug detected (MT-2 cells; MT-2 cells treated with drug for 30 min): Negligible levels of 6415
nucleosides/nucleotides detected (MT-2 cells; MT-2 cells, 50 μM, 4 hr): converted to AZG and AZG-TP
AZG-TP levels compared with AZG treatment (MT-2 cells; MT-2 cells, 4 hr at 50 μM): higher
Compound: [N-]=[N+]=NC1C[C@H](n2cnc3c(Cl)nc(N)nc32)O[C@@H]1CO (stereo partly shown) [Compound 6415]
species not detected by LC/MS ([3]; human, 4 h): Neither Compound 6415 nor its phosphates were detected
